Legend:
soybean (Glycine max) [1] = experiment: Upland field foliage treatment (Test Example 1), crop; type: in vivo; settings: foliage treatment 14th day after sowing, 1 kg active ingredient per hectare, evaluated 21st day, lower index = higher safety
How it was run: (§1)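 Foliage application took place two weeks after sowing, at an active-ingredient rate of 1 kg/ha from a water-diluted wettable powder. Rating followed on the 21st day after application, using an index scale on which crop values rise as injury increases.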

[2] = tested on: wheat (Triticum aestivum); experiment: as above; type: in vivo; settings: foliage treatment 14th day after sowing, 1 kg active ingredient per hectare, evaluated 21st day, lower index = higher safety
How it was run: as §1

Digitaria adscendens [3] = experiment: Upland field foliage treatment (Test Example 1); type: in vivo; settings: foliage treatment 14th day after sowing, wettable powder, 1 kg active ingredient per hectare, evaluated 21st day after application
How it was run: as §1

Stellaria media [4] = experiment: Upland field foliage treatment (Test Example 1); type: in vivo; settings: foliage treatment 14th day after sowing, wettable powder, 1 kg active ingredient per hectare, evaluated 21st day after application
How it was run: as §1

Chenopodium album [5] = experiment: Upland field foliage treatment (Test Example 1); type: in vivo; settings: foliage treatment 14th day after sowing, wettable powder, 1 kg active ingredient per hectare, evaluated 21st day after application
How it was run: as §1

Setaria viridis [6] = experiment: Upland field foliage treatment (Test Example 1); type: in vivo; settings: foliage treatment 14th day after sowing, wettable powder, 1 kg active ingredient per hectare, evaluated 21st day after application
How it was run: as §1

[7] = tested on: rice (Oryza sative, variety: Koshihikari); experiment: Paddy field treatment (Test Example 3), crop; type: in vivo, Oryza sativa; settings: transplanted rice two-leaf period, water surface treatment 10th day after transplantation, 1 kg active ingredient per hectare, evaluated 21st day, lower index = higher safety
How it was run: (§2)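 Index scores for herbicidal effect were read 21 days after treatment, higher meaning stronger effect. Treatment was a water-diluted wettable powder dropped onto flooded paddy soil at 1 kg active ingredient per hectare, 10 days after rice transplantation.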

Echinochloa spp. = experiment: Paddy field treatment (Test Example 3); type: in vivo, Echinochloa crusgalli; settings: paddy pot, submerged 4 cm, dropped on water surface 10th day after transplantation, 1 kg active ingredient per hectare, evaluated 21st day
How it was run: as §2

Ammannia multiflora = experiment: Paddy field treatment (Test Example 3); type: in vivo; settings: paddy pot, submerged 4 cm, dropped on water surface 10th day after transplantation, 1 kg active ingredient per hectare, evaluated 21st day
How it was run: as §2

Scirpus juncoides = experiment: Paddy field treatment (Test Example 3); type: in vivo; settings: paddy pot, submerged 4 cm, dropped on water surface 10th day after transplantation, 1 kg active ingredient per hectare, evaluated 21st day
How it was run: as §2

Monochoria vaginalis = experiment: Paddy field treatment (Test Example 3); type: in vivo; settings: paddy pot, submerged 4 cm, dropped on water surface 10th day after transplantation, 1 kg active ingredient per hectare, evaluated 21st day
How it was run: as §2

Digitaria adscendens [8] = experiment: Upland soil treatment (Test Example 2); type: in vivo; settings: soil surface treatment next day after sowing, wettable powder, 1 kg active ingredient per hectare, evaluated 21st day after application
How it was run: (§3)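 Scored 21 days post-application on an index scale where higher values mean greater herbicidal effect on weeds and lower values mean greater crop safety. Treatment was a water-diluted wettable powder sprayed evenly onto the soil surface at 1 kg active ingredient per hectare, one day after seeding.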

Stellaria media [9] = experiment: Upland soil treatment (Test Example 2); type: in vivo; settings: soil surface treatment next day after sowing, wettable powder, 1 kg active ingredient per hectare, evaluated 21st day after application
How it was run: as §3

Chenopodium album [10] = experiment: Upland soil treatment (Test Example 2); type: in vivo; settings: soil surface treatment next day after sowing, wettable powder, 1 kg active ingredient per hectare, evaluated 21st day after application
How it was run: as §3

Setaria viridis [11] = experiment: Upland soil treatment (Test Example 2); type: in vivo; settings: soil surface treatment next day after sowing, wettable powder, 1 kg active ingredient per hectare, evaluated 21st day after application
How it was run: as §3

soybean (Glycine max) [12] = experiment: Upland soil treatment (Test Example 2), crop; type: in vivo; settings: soil surface treatment next day after sowing, 1 kg active ingredient per hectare, evaluated 21st day, lower index = higher safety
How it was run: as §3

[13] = tested on: wheat (Triticum aestivum); experiment: Upland soil treatment (Test Example 2), crop; type: in vivo; settings: soil surface treatment next day after sowing, 1 kg active ingredient per hectare, evaluated 21st day, lower index = higher safety
How it was run: as §3

SMILES | Herbicidal activity Glycine max (soybean (Glycine max) [1]) | Herbicidal activity Triticum aestivum [2] | Herbicidal activity Digitaria adscendens (Digitaria adscendens [3]) | Herbicidal activity Stellaria media (Stellaria media [4]) | Herbicidal activity Chenopodium album (Chenopodium album [5]) | Herbicidal activity Setaria viridis (Setaria viridis [6]) | Herbicidal activity Oryza sativa [7] | Herbicidal activity Echinochloa spp. (Echinochloa spp.) | Herbicidal activity Ammannia multiflora (Ammannia multiflora) | Herbicidal activity Scirpus juncoides (Scirpus juncoides) | Herbicidal activity Monochoria vaginalis (Monochoria vaginalis) | Herbicidal activity Digitaria adscendens (Digitaria adscendens [8]) | Herbicidal activity Stellaria media (Stellaria media [9]) | Herbicidal activity Chenopodium album (Chenopodium album [10]) | Herbicidal activity Setaria viridis (Setaria viridis [11]) | Herbicidal activity Glycine max (soybean (Glycine max) [12]) | Herbicidal activity Triticum aestivum [13]
COC=C(Cn1nc(-c2ccccc2)c(Cl)c1SC)C(=O)OC [Compound 41] | 0 (herbicidal effect of not less than 0% by weight and less than 10% by weight) | 0 (herbicidal effect of not less than 0% by weight and less than 10% by weight) | 4 (herbicidal effect of not less than 70% by weight and less than 90% by weight) | 4 (herbicidal effect of not less than 70% by weight and less than 90% by weight) | 4 (herbicidal effect of not less than 70% by weight and less than 90% by weight) | 4 (herbicidal effect of not less than 70% by weight and less than 90% by weight) | 0 (herbicidal effect of not less than 0% by weight and less than 10% by weight) | 4 (herbicidal effect of not less than 70% by weight and less than 90% by weight) | 3 (herbicidal effect of not less than 50% by weight and less than 70% by weight) | 3 (herbicidal effect of not less than 50% by weight and less than 70% by weight) | 3 (herbicidal effect of not less than 50% by weight and less than 70% by weight) | 4 (herbicidal effect of not less than 70% by weight and less than 90% by weight) | 4 (herbicidal effect of not less than 70% by weight and less than 90% by weight) | 4 (herbicidal effect of not less than 70% by weight and less than 90% by weight) | 4 (herbicidal effect of not less than 70% by weight and less than 90% by weight) | 0 (herbicidal effect of not less than 0% by weight and less than 10% by weight) | 0 (herbicidal effect of not less than 0% by weight and less than 10% by weight)
COC=C(Cn1nc(-c2cccc(Cl)c2)c(Cl)c1SC)C(=O)OC [Compound 42] | 0 (herbicidal effect of not less than 0% by weight and less than 10% by weight) | 0 (herbicidal effect of not less than 0% by weight and less than 10% by weight) | 4 (herbicidal effect of not less than 70% by weight and less than 90% by weight) | 4 (herbicidal effect of not less than 70% by weight and less than 90% by weight) | 4 (herbicidal effect of not less than 70% by weight and less than 90% by weight) | 4 (herbicidal effect of not less than 70% by weight and less than 90% by weight) | 0 (herbicidal effect of not less than 0% by weight and less than 10% by weight) | 3 (herbicidal effect of not less than 50% by weight and less than 70% by weight) | 3 (herbicidal effect of not less than 50% by weight and less than 70% by weight) | 3 (herbicidal effect of not less than 50% by weight and less than 70% by weight) | 3 (herbicidal effect of not less than 50% by weight and less than 70% by weight) | 4 (herbicidal effect of not less than 70% by weight and less than 90% by weight) | 4 (herbicidal effect of not less than 70% by weight and less than 90% by weight) | 4 (herbicidal effect of not less than 70% by weight and less than 90% by weight) | 4 (herbicidal effect of not less than 70% by weight and less than 90% by weight) | 0 (herbicidal effect of not less than 0% by weight and less than 10% by weight) | 0 (herbicidal effect of not less than 0% by weight and less than 10% by weight)
CCc1c(Br)c(-c2ccccc2)nn1CC(=COC)C(=O)OC [Compound 43] | 0 (herbicidal effect of not less than 0% by weight and less than 10% by weight) | 0 (herbicidal effect of not less than 0% by weight and less than 10% by weight) | 4 (herbicidal effect of not less than 70% by weight and less than 90% by weight) | 5 (herbicidal effect of not less than 90% by weight) | 5 (herbicidal effect of not less than 90% by weight) | 4 (herbicidal effect of not less than 70% by weight and less than 90% by weight) | 0 (herbicidal effect of not less than 0% by weight and less than 10% by weight) | 3 (herbicidal effect of not less than 50% by weight and less than 70% by weight) | 3 (herbicidal effect of not less than 50% by weight and less than 70% by weight) | 4 (herbicidal effect of not less than 70% by weight and less than 90% by weight) | 3 (herbicidal effect of not less than 50% by weight and less than 70% by weight) | 4 (herbicidal effect of not less than 70% by weight and less than 90% by weight) | 4 (herbicidal effect of not less than 70% by weight and less than 90% by weight) | 4 (herbicidal effect of not less than 70% by weight and less than 90% by weight) | 4 (herbicidal effect of not less than 70% by weight and less than 90% by weight) | 0 (herbicidal effect of not less than 0% by weight and less than 10% by weight) | 0 (herbicidal effect of not less than 0% by weight and less than 10% by weight)
COC=C(Cn1nc(-c2ccccc2)c(Br)c1SC)C(=O)OC [Compound 44] | 0 (herbicidal effect of not less than 0% by weight and less than 10% by weight) | 0 (herbicidal effect of not less than 0% by weight and less than 10% by weight) | 4 (herbicidal effect of not less than 70% by weight and less than 90% by weight) | 4 (herbicidal effect of not less than 70% by weight and less than 90% by weight) | 4 (herbicidal effect of not less than 70% by weight and less than 90% by weight) | 4 (herbicidal effect of not less than 70% by weight and less than 90% by weight) | 0 (herbicidal effect of not less than 0% by weight and less than 10% by weight) | 3 (herbicidal effect of not less than 50% by weight and less than 70% by weight) | 3 (herbicidal effect of not less than 50% by weight and less than 70% by weight) | 3 (herbicidal effect of not less than 50% by weight and less than 70% by weight) | 3 (herbicidal effect of not less than 50% by weight and less than 70% by weight) | 4 (herbicidal effect of not less than 70% by weight and less than 90% by weight) | 4 (herbicidal effect of not less than 70% by weight and less than 90% by weight) | 4 (herbicidal effect of not less than 70% by weight and less than 90% by weight) | 4 (herbicidal effect of not less than 70% by weight and less than 90% by weight) | 0 (herbicidal effect of not less than 0% by weight and less than 10% by weight) | 0 (herbicidal effect of not less than 0% by weight and less than 10% by weight)
